According to patent publication US20260297080A1, “BICYCLIC COMPOUNDS AS CDK INHIBITORS” (BeOne Medicines I GmbH, priority 2022, published 2026):

Legend:
CDK2/Cyclin E1 = CDK2/Cyclin E1 (Homo sapiens, UniProt P24941); experiment: CDK2/Cyclin E1 Biochemical Assay (TR-FRET), 0.060 mM ATP; conditions: 0.15 μM Rb (Ser780)-biotin substrate, pH7.0, 60 min preincubation, 120 min reaction, room temperature
Method in brief: (§1)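 Phosphorylation of a biotin-tagged Rb Ser780 peptide (0.15 μM) is measured by time-resolved FRET between a europium-labelled phospho-specific antibody and streptavidin-XL665. Compound (0–10 μM) sits with enzyme 60 min first; the kinase reaction then proceeds 120 min at room temperature, pH 7.0.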

CDK1/Cyclin B1 = CDK1/Cyclin B1 (Homo sapiens, UniProt P06493); experiment: CDK1/Cyclin B1 Biochemical Assay (TR-FRET), 0.015 mM ATP; conditions: 0.15 μM Rb (Ser780)-biotin substrate, pH7.0, 60 min preincubation, 120 min reaction, room temperature
Sequence of CDK1/Cyclin B1 (P06493 whole entry): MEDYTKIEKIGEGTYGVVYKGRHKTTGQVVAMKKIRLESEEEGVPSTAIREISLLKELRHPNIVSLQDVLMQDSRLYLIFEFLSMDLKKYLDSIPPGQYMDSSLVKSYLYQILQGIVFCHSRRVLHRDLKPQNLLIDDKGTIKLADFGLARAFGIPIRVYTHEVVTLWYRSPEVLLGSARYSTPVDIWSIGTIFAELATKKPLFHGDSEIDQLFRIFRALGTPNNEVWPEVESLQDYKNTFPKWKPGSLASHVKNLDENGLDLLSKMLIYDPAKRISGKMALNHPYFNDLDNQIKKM
Sequence of CDK1/Cyclin B1 (P14635 whole entry partner): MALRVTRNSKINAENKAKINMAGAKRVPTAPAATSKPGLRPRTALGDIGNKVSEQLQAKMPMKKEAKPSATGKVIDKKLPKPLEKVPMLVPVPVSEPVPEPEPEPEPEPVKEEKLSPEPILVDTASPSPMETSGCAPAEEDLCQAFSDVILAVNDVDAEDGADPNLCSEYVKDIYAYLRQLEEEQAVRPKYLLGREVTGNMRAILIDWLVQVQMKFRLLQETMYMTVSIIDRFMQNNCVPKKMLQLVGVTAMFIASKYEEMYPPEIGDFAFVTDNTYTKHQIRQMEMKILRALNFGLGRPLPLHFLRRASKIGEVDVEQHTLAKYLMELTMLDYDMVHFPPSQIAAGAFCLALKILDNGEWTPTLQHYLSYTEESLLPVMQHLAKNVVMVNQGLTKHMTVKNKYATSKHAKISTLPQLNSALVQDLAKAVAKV
Method in brief: as §1

Row | Compound | IC50 (CDK2/Cyclin E1) [nM] | IC50 (CDK1/Cyclin B1) [nM]
1 | CN1Cc2c(ccc(Nc3cc([C@@H]4CC[C@H](OC(=O)NC5(C)CCOC5)C4)[nH]n3)c2F)S1(=O)=O (relative stereo) [Example 335, cis-3-(3-((4-fluoro-2-methyl-1,1-dioxido-2,3-dihydrobenzo[d]isothiazol-5-yl)amino)-1H-pyrazol-5-yl)cyclopentyl(3-methyltetrahydrofuran-3-yl)carbamate] | 5.1 | 351
2 | CC(C)NC(=O)O[C@H]1CC[C@@H](c2cc(Nc3ccc4c(c3F)C(F)(F)S(=O)(=O)N4)n[nH]2)C1 (relative stereo) [Example 356, cis-3-(3-((3,3,4-trifluoro-2,2-dioxido-1,3-dihydrobenzo[c]isothiazol-5-yl)amino)-1H-pyrazol-5-yl)cyclopentyl isopropylcarbamate] | 164 | 1580
3 | CC(C)NC(=O)O[C@H]1CC[C@@H](c2cc(Nc3ccc4c(n3)CNS4(=O)=O)n[nH]2)C1 (relative stereo) [Example 33, cis-3-(3-((1,1-dioxido-2,3-dihydroisothiazolo[4,5-b]pyridin-5-yl)amino)-1H-pyrazol-5-yl)cyclopentyl isopropylcarbamate] | 1.8 | 38
4 | COc1cc2c(cc1Nc1cc([C@@H]3CC[C@H](OC(=O)NC(C)C)C3)[nH]n1)C(C)(C)NS2(=O)=O (relative stereo) [Example 23, cis-3-(3-((6-methoxy-3,3-dimethyl-1,1-dioxido-2,3-dihydrobenzo[d]isothiazol-5-yl)amino)-1H-pyrazol-5-yl)cyclopentyl isopropylcarbamate] | 244 | 1170
5 | CC(C)NC(=O)O[C@H]1CC[C@@H](c2cc(Nc3ccc4c(c3F)CN(C(C)C3COC3)S4(=O)=O)n[nH]2)C1 (relative stereo) [Example 104, cis-3-(3-((4-fluoro-2-(1-(oxetan-3-yl)ethyl)-1,1-dioxido-2,3-dihydrobenzo[d]isothiazol-5-yl)amino)-1H-pyrazol-5-yl)cyclopentyl isopropylcarbamate] | 5.7 | 244
6 | COc1cc2c(cc1Nc1cc([C@@H]3CC[C@H](OC(=O)NC(C)C)C3)[nH]n1)S(=O)(=O)NC2 (relative stereo) [Example 182, cis-3-(3-((5-methoxy-1,1-dioxido-2,3-dihydrobenzo[d]isothiazol-6-yl)amino)-1H-pyrazol-5-yl)cyclopentyl isopropylcarbamate] | 279 | 5580
7 | [2H]C([2H])([2H])N1c2ccc(Nc3cc([C@@H]4CC[C@H](OC(=O)NC(C)C)C4)[nH]n3)c(F)c2CS1(=O)=O (single isomer, unassigned) [Example 267b, cis-3-(3-((4-fluoro-1-(methyl-d3)-2,2-dioxido-1,3-dihydrobenzo[c]isothiazol-5-yl)amino)-1H-pyrazol-5-yl)cyclopentyl isopropylcarbamate] | 6.4 | 73
8 | CC(C)NC(=O)O[C@H]1CC[C@@H](c2cc(Nc3ccc4c(c3F)CN(CCN3CCOCC3)S4(=O)=O)n[nH]2)C1 (relative stereo) [Example 112, cis-3-(3-((4-fluoro-2-(2-morpholinoethyl)-1,1-dioxido-2,3-dihydrobenzo[d]isothiazol-5-yl)amino)-1H-pyrazol-5-yl)cyclopentyl isopropylcarbamate] | 6.3 | 458
9 | CC(C)NC(=O)O[C@H]1CC[C@@H](c2cc(Nc3cc4c(cc3F)CNS4(=O)=O)n[nH]2)C1 (single isomer, unassigned) [Example 1a, cis-3-(3-((5-fluoro-1,1-dioxido-2,3-dihydrobenzo[d]isothiazol-6-yl)amino)-1H-pyrazol-5-yl)cyclopentyl isopropylcarbamate] | 22 | 860
10 | CC1(NC(=O)O[C@H]2CC[C@@H](c3cc(Nc4ccc5c(c4F)CS(=O)(=O)N5)n[nH]3)C2)CCOC1 (relative stereo) [Example 375, cis-3-(3-((4-fluoro-2,2-dioxido-1,3-dihydrobenzo[c]isothiazol-5-yl)amino)-1H-pyrazol-5-yl)cyclopentyl(3-methyltetrahydrofuran-3-yl)carbamate] | 4.6 | 95
